These results are taken from article PMC2361324, “Phase 1 trial of the antiangiogenic peptide ATN-161 (Ac-PHSCN-NH2), a beta integrin antagonist, in patients with solid tumours” (British Journal of Cancer, 2006).

Data set [1] can be described thus: Serological antibody immune response against ATN-161 in patients. It counts as in vivo, human.
For data set [2] the following is noted: except at extremely high, supratherapeutic doses, ref not given, cited from earlier work. From the text:
These preclinical animal models included assessment of the effects of ATN-161 on tumour growth, metastasis, angiogenesis, tumour perfusion and circulating endothelial progenitor cells (CEPs) ([Donate et al, 2003]). […] We designed the phase 1 trial to evaluate a dose range in human beings (using well-established rules for interspecies dose conversi ...

The nature of data set [3]: Urinary excretion and renal clearance in phase 1 trial. Conditions: urine; for dose excreted: human, iv. It counts as in vivo, human.
Description: Blood samples for PK analysis were collected in EDTA-coated tubes on Day 1 for all patients preinfusion, at the end of infusion, and at 5, 10, 15, 30, 45, 60, 90, 120, 150, 180, 240, 400, 460 and 520 min after infusion. Samples were immediately centrifuged, and the plasma was separated and stored at −20°C prior to analysis.
Pharmacokinetic data were modelled using a noncompartmental approach to estimate individual subject values for the following parameters: maximum observed concentration (Cmax), time of the maximum observed concentration (Tmax), volume of distribution at steady state (VSS), terminal elimination half-life (t1/2), total systemic clearance (CL), area under the plasma concentration-time curve (AUC), and CLr. For these parameters the mean and s.d. coefficient of variation were calculated.
Descriptive PKs parameters were determined by standard model independent methods for infusion administration ([Perrier and Gibaldi, 1982]) from plasma concentrations in each individual patient. Plasma and urine concentrations were rounded to the nearest [drawing 1] ng ml^−1 before the calculations. Plasma samples with concentrations below the quantifiable limit of 50.0 ng ml^−1 (BQL) were assigned values of zero for generation of mean and s.d. plasma concentrations. For PKs calculations, BQL was treated as zero up to the first quantifiable plasma concentration and then treated as an empty value thereafter. Urine samples reported as BQL (⩽50.0 ng ml^−1) were treated as zero for all calculations. Actual patient blood collection sampling times relative to the start of infusion were used for PKs calculations; however, scheduled collection times were used for urinary excretion data and graphical presentations of all data.
The next data set relates to advanced solid tumours. The data set can be described thus: Clinical response by RECIST in phase 1 trial. In kind it is in vivo, human. The method, then: During treatment, patients were evaluated monthly with physical examinations including toxicity assessment using the CTC, ECOG PS, serum chemistry, haematology and coagulation testing. Tumour burden was reassessed every two cycles (8 weeks) by physical exam or radiological methods as appropriate using RECIST ([Therasse et al, 2000]).

Read-outs that look alike come from different tables or passages of the source.

For Ac-PHSCN-NH2 [ATN-161, Ac-PHSCN-NH2], the “Antibody immune response against ATN-161” value in data set [1] is given as “no serological evidence”. Besides, the “Toxicity in preclinical toxicology studies” value in data set [2] (primates) and in data set [2] (rats) was “no consistent evidence of ATN-161 toxicity” each time. In data set [3] (almost all patients (23 of 26)), the “time after dose administration in which the majority of the dose was excreted” value is recorded as at most 2 h. Also, the dose excreted was 2.46% in data set [3] (0.1 mg/kg, patients, 0.1 mg kg^−1 10-min i.v. infusion, Day 1, HPLC-MS/MS, cohort mean, read-out: Urinary excretion between 0 and 7 h as a percent of dose); 13.8% in data set [3] (0.25 mg/kg, patients, 0.25 mg kg^−1 10-min i.v. infusion, Day 1, HPLC-MS/MS, cohort mean, read-out: Urinary excretion between 0 and 7 h as a percent of dose); 25.3% in data set [3] (0.5 mg/kg, patients, 0.5 mg kg^−1 10-min i.v. infusion, Day 1, HPLC-MS/MS, cohort mean, read-out: Urinary excretion between 0 and 7 h as a percent of dose); 1.82% in data set [3] (1 mg/kg, patients, 1 mg kg^−1 10-min i.v. infusion, Day 1, HPLC-MS/MS, cohort mean, read-out: Urinary excretion between 0 and 7 h as a percent of dose); 2.35% in data set [3] (2 mg/kg, patients, 2 mg kg^−1 10-min i.v. infusion, Day 1, HPLC-MS/MS, cohort mean, read-out: Urinary excretion between 0 and 7 h as a percent of dose); 2.36% in data set [3] (4 mg/kg, patients, 4 mg kg^−1 10-min i.v. infusion, Day 1, HPLC-MS/MS, cohort mean, read-out: Urinary excretion between 0 and 7 h as a percent of dose). The dose excreted in data set [3] (8 mg/kg, patients, 8 mg kg^−1 10-min i.v. infusion, Day 1, HPLC-MS/MS, cohort mean, read-out: Urinary excretion between 0 and 7 h as a percent of dose) was 17.5%; in data set [3] (16 mg/kg, patients, 16 mg kg^−1 10-min i.v. infusion, Day 1, HPLC-MS/MS, cohort mean, read-out: Urinary excretion between 0 and 7 h as a percent of dose), 15.3%; in data set [3] (majority of the patients (20 of 26), all dose levels, urine 0-7 h, read-out: Urinary excretion, percent of administered dose), around 2%; in data set [3] (remaining six of 26 patients, not associated with dose level, urine 0-7 h, read-out: Urinary excretion, percent of administered dose), 20 to 50%. Moreover, in the data set with advanced solid tumours (26 patients, 0.1-16 mg kg^−1 thrice weekly i.v.), the “Objective response as defined by RECIST” value is listed as “No patient in the study had an objective response”. Moreover, in the data set with advanced solid tumours (patients in the study, all dose levels), the “Fraction of patients with prolonged stable disease” value is 1/3. Also, the “Patients with stable disease of >4 months” value in the data set with advanced solid tumours (six of the 26 treated patients, 0.1-16 mg kg^−1 thrice weekly i.v.) was determined as 23%.
